Laboratory results as given in US11730811B2, “Method for treating subject suffering from flavivirus infection” (priority 2017, dated 2023).

System: human microvascular endothelial cells
Assay: in vitro transwell permeability assay (streptavidin-HRP leakage) with DENV NS1
Type: cell-based
Conditions: hyaluronidase 0.5 unit/mL to 50 units/mL added with DENV NS1 3 μg/ml for 6 hours; FIG. 6
Description: Vascular leakage is an important feature in several diseases, such as septic shock, viral hemorrhagic fever, cancer metastasis and ischemia-reperfusion injuries. Thus, an in vitro endothelial permeability assay will provide insight into the establishment or progression of such diseases. The transwell permeability assays directly detect the penetration of a specific molecule, which can be detected by a spectrometer-based absorbance reader.
The permeability of human microvascular endothelial cells treated or not with DENV NS1 (3 μg/ml, Cat. No. ENZ-PRT105-0100, Enzo Life Sciences, Inc., NY, U.S.A.), was measured by an in vitro transwell permeability assay that mimics human endothelium in vivo (referring to http://www.bio-protocol.org/e2273). In brief, human microvascular endothelial cells (2×10^5) were grown in a 24-Transwell® (pore size: 0.4 μm, Cat. No. 3414; Corning, Kennebunk, Me., U.S.A.) for 5 days until a confluent monolayer was formed. […] Twenty microliters of medium, from each lower chamber, was transferred to a 96-well plate and analyzed for HRP activity by adding 100 μL 3,3′,5,5′-tetramethylbenzidine (TMB) substrate (Sigma-Aldrich, Cat. No. T4444, St. Louis, Mo., U.S.A.). Color development was detected by an EnSpire Multimode Reader (PerkinElmer, Upplands Väsby, Sweden) at 450 nm.

hyaluronidase
DENV NS1-induced endothelial hyper-permeability: reverse the DENV NS1-induced endothelial hyper-permeability significantly
